Reference: patent publication US11220674B2, “Stabilization of dehydrogenases with stable coenzymes” (ROCHE DIABETES CARE, INC., priority 2009, dated 2022)

Assays:
[1] = target: glucose dehydrogenase/NAD system (Bacillus subtilis, UniProt P12310); assay: Photometric glucose determination with GlucDH/NAD, mediator and 2,18-phosphomolybdic acid (reflectance); conditions: for reflectance of the measured sample: glucose concentration in the region of 800 mg/dl; for reflectance versus glucose concentration: test elements stored at room temperature for 11 weeks, GlucDH, NAD, mediator, 2,18-phosphomolybdic acid
Method: To determine glucose, various test systems which included in each case glucose dehydrogenase, NAD, a mediator and, where appropriate, an optical indicator were measured photometrically and electrochemically.
For photometric measurements, initially four test elements which had in each case been stored at room temperature for 11 weeks and comprised 2,18-phosphomolybdic acid, besides glucose dehydrogenase, NAD and a mediator, were investigated with various glucose concentrations.

[2] = target: T1, alcohol dehydrogenase from yeast (Saccharomyces cerevisiae, UniProt P00330); assay: Stability of alcohol dehydrogenase in liquid phase at 35° C. with coenzyme (residual activity); type: biochemical; conditions: after 65 hours at 35° C.
T1 sequence (P00330 1-348): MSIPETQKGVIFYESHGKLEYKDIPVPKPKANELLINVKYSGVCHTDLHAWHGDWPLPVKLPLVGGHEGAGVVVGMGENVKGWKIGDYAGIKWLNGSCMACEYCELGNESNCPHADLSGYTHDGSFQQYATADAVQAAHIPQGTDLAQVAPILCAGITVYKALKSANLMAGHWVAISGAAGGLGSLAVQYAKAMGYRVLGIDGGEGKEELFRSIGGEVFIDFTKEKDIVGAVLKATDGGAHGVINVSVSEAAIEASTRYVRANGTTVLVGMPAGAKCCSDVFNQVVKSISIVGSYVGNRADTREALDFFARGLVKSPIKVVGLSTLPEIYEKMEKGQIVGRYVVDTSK
Method: FIG. 14 is a depiction of the stability of alcohol dehydrogenase from yeast in the presence of NAD and cNAD, respectively, in liquid phase at 35° C. over a period of 65 hours. Test conditions: ADH 5 mg/ml; NAD and cNAD, respectively, 50 mg/ml; buffer: 75 mM Na4P207, glycine, pH 9.0; temperature 35° C.
(§1) cNAD or NAD were added to an alcohol detection solution. These mixtures were stored at 35° C. The stability of the enzyme was then checked at regular intervals, and the residual activity of the enzyme was determined.
After 65 hours at 35° C., the residual activity of alcohol dehydrogenase in the presence of the native coenzyme NAD is about 6%, whereas the residual activity of the enzyme in the presence of the artificial coenzyme cNAD is still about 60%.

[3] = target: T2, glucose dehydrogenase (GlucDH) (Bacillus subtilis, UniProt P12310); assay: Stability of GlucDH in liquid phase at 50° C. with coenzyme (residual activity); type: biochemical
Method: FIG. 11A is a depiction of the stability of glucose dehydrogenase in the presence of NAD and cNAD, respectively, in liquid phase at 50° C. over a period of 4 days Test conditions: GlucDH 10 mg/ml; NAD and cNAD, respectively, 12 mg/ml; buffer: 0.1 M Tris, 1.2 M NaCl, pH 8.5; temperature 50° C.
FIG. 11B is a depiction of the stability of glucose dehydrogenase in the presence of NAD and cNAD, respectively, in liquid phase at 50° C. over a period of 14 days at the same test conditions as FIG. 11A.
After 95 hours at 50° C., the residual activity of glucose dehydrogenase in the presence of the native coenzyme NAD is ≈5%, whereas the residual activity of GlucDH in the presence of the artificial coenzyme cNAD is 75% (FIG. 11A). After storage at 50° C. for 336 hours, the residual activity of the enzyme stabilized with NAD is now only about 1%; the residual activity of the enzyme stored in the presence of cNAD is observed to be still about 70%.

[4] = target: glucose dehydrogenase (GlucDH), wild-type (Bacillus subtilis, UniProt P12310); assay: Residual activity of GlucDH after dry storage on film with coenzyme; type: biochemical
Method: (§2) Carba-NAD (FIG. 1A) or NAD were added to the glucose-specific GlucDH. These formulations were in each case applied to Pokalon film (Lonza) and, after drying, stored under warm and moist conditions (32° C., 85% relative humidity). The reaction kinetics and the function plot were subsequently determined at regular intervals. In parallel, at each of the times of measurement a cNAD/NAD analysis and a determination of the residual activity of the enzyme were carried out.
The result of the determination of residual activity of the active GlucDH enzyme after 5 weeks at 32° C. and 85% relative humidity (FIG. 7A) is completely surprising. […] After 24 weeks at 32° C. and 85% relative humidity (FIG. 7B), the residual activity of the enzyme on stabilization with cNAD is still about 25%.

[5] = target: T1, alcohol dehydrogenase from yeast; assay: SDS gel electrophoresis of alcohol dehydrogenase after storage with coenzyme
Method: Test conditions: MW, 10 220 kDa markers; 1: ADH, 65 hours at 6° C.; 2: ADH/cNAD, 65 hours at 6° C.; 3: ADH/NAD, 65 hours at 6° C.; 4: ADH, 65 hours at 35° C.; 5: ADH/cNAD, 65 hours at 35° C.; 6: ADH/NAD, 65 hours at 35° C.
Test conditions: MW, 10 220 kDa markers; 1: ADH/NAD, 0 days; 2: ADH/NAD, 1 day; 3: ADH/NAD, 2 days; 4: ADH/NAD, 3 days; 5: ADH/NAD, 5 days; 6: ADH/cNAD, 0 days; 7: ADH/cNAD, 1 day; 8: ADH/cNAD, 2 days; 9: ADH/cNAD, 3 days; 10: ADH/cNAD, 6 days.
as §1

[6] = Residual content of coenzyme in glucose detection reagent after dry storage on film (cNAD/NAD analysis); type: physicochemical; conditions: storage at 32° C. and 85% relative humidity for 24 weeks
Method: as §2
The relation between structure of the coenzyme and its stability over a predetermined period is evident from FIG. 6. According to this, the residual content of cNAD in a glucose detection reagent after storage (at 32° C. and 85% relative humidity) for 24 weeks is still about 80% of the initial level, whereas the content of NAD in a glucose detection reagent stabilized with NAD declines after only 5 weeks to about 35% of the initial level and, by extrapolation, is reduced to zero after about 17 weeks.

[7] = target: T2, glucose dehydrogenase (GlucDH); assay: SDS gel electrophoresis of GlucDH after storage with coenzyme
Method: Test conditions: MW, 10 220 kDa markers; 1: GlucDH/NAD, 5 weeks at 6° C.; 2: GlucDH/NAD, 5 weeks at 32° C./85% relative humidity; 3: GlucDH/cNAD, 5 weeks at 6° C.; 4: GlucDH/cNAD, 5 weeks at 32° C./85% relative humidity.
Test conditions: MW, 10 220 kDa markers; 1: GlucDH 8.5 mg/ml, NAD, 0 hours; 2: GlucDH 8.5 mg/ml, NAD, 22 hours; 3: GlucDH 8.5 mg/ml, NAD, 96 hours; 4: GlucDH 8.5 mg/ml, NAD, 118 hours; 5: GlucDH 8.5 mg/ml, NAD, 140 hours; 6: GlucDH 8.5 mg/ml, NAD, 188 hours; 7: GlucDH 8.5 mg/ml, NAD, 476 hours; 8: GlucDH 8.5 mg/ml, cNAD, 0 hours; 9: GlucDH 8.5 mg/ml, cNAD, 188 hours; 10: GlucDH 8.5 mg/ml, cNAD, 476 hours.

[8] = target: glucose dehydrogenase (Bacillus subtilis, UniProt P12310); assay: Electrochemical glucose determination with GlucDH, coenzyme and mediator (current); conditions: 25 mM coenzyme; mediator 1-(3-carboxypropoxy)-5-ethylphenazinium trifluoromethanesulfonate
Method: FIG. 20 is a depiction of the current measured as a function of the glucose concentration in the electrochemical determination of glucose using glucose dehydrogenase in the presence of NAD and cNAD, respectively. Test conditions: 25 mM NAD and cNAD, respectively; 2.5 seconds delay; 5 seconds measurement time.
As alternative to photometry it is also possible to employ an electrochemical measurement for the purpose of determining analytes.

[9] = target: T2, glucose dehydrogenase (GlucDH); assay: Reaction kinetics, function plot and dry blank value of GlucDH test film after storage; type: biochemical
Method: as §2
However, a distinct difference in the kinetics plots is evident after 5 weeks.
There is also a distinct difference in the blank values (dry blank value before application of a blood sample), as is evident from FIG. 3.
The differing stability of glucose dehydrogenase in the presence of NAD and cNAD, respectively, is also evident from comparison of FIGS. 4 and 5.

[10] = target: GlucDH_E170K_K252L (GlucDH-Mut2) (Bacillus subtilis, UniProt P12310, A229V/A236S/E170K/Q252L); assay: Residual activity of GlucDH mutant after dry storage with coenzyme; type: biochemical; conditions: storage at 32° C. and 85% relative humidity for 24 weeks
Method: (§3) FIG. 8 is a depiction of the GlucDH activity after storage of glucose dehydrogenase (GlucDH wt), the double mutant GlucDH_E96G_EI70K (GlucDH Mut1) and the double mutant GlucDH_E170K_K252L (GlucDH Mut2) in the presence of NAD and cNAD, respectively, at 32° C. and 83% relative humidity over a period of 25 weeks.
as §2
(§4) If a mutant is used instead of the wild-type enzyme (from Bacillus subtilis), it is possible to increase the residual GlucDH activity even further. […]

[11] = target: GlucDH_E96G_E170K (GlucDH-Mut1) (Bacillus subtilis, UniProt P12310, A229V/A236S/E170K/E96G/Q252K); assay: as above; type: biochemical; conditions: storage at 32° C. and 85% relative humidity for 24 weeks
Method: as §3, §2, §4

[12] = storage at 50° C. for 336 hours
[13] = after 5 weeks at 32° C. and 85% relative humidity, versus samples stored in refrigerator with desiccant

Row | Compound | reflectance of the measured sample [1] | reflectance versus glucose concentration [1] | residual activity of alcohol dehydrogenase [2] | residual activity of glucose dehydrogenase ([3]; after 95 hours at 50° C.) | residual activity of glucose dehydrogenase [3, 12] | residual activity of GlucDH enzyme [4, 13] [%] | also measured
1 | Cl.O=Nc1ccc(N(CO)CO)cc1 [Med A, [(4-nitrosophenyl)imino]dimethanol hydrochloride] | about 20% | a fall in the reflectance was observed with increasing glucose concentration |  |  |  |  | 
2 | C[n+]1cccc2c1-c1ncccc1C(=O)C2=O.O=S(=O)([O-])C(F)(F)F [Med B, 1-methyl-5,6-dioxo-5,6-dihydro-1, 10-phenanthrolinium trifluoromethanesulfonate] |  | a fall in the reflectance was observed with increasing glucose concentration |  |  |  |  | 
3 | C[n+]1cccc2c1C(=O)C(=O)c1cccnc1-2.O=S(=O)([O-])C(F)(F)F [Med F, 7-methyl-5,6-dioxo-5,6-dihydro-1,7-phenanthrolinium trifluoromethanesulfonate] |  | a fall in the reflectance was observed with increasing glucose concentration |  |  |  |  | 
4 | CC[n+]1c2ccccc2nc2c(OCCCC(=O)O)cccc21.O=S(=O)([O-])C(F)(F)F [Med G, 1-(3-carboxypropoxy)-5-ethylphenazinium trifluoromethanesulfonate] | about 20% | a fall in the reflectance was observed with increasing glucose concentration |  |  |  |  | 
5 | NC(=O)c1ccc[n+]([C@@H]2O[C@H](COP(=O)([O-])OP(=O)(O)OC[C@H]3O[C@@H](n4cnc5c(N)ncnc54)[C@H](O)[C@@H]3O)[C@@H](O)[C@H]2O)c1 [NAD, nicotinamide adenine dinucleotide, reference compound] |  |  | about 6% | ≈ 5% | about 1% | 0.5 | 
6 | NC(=O)c1ccc[n+]([C@@H]2C[C@H](COP(=O)([O-])OP(=O)(O)OC[C@H]3O[C@@H](n4cnc5c(N)ncnc54)[C@H](O)[C@@H]3O)[C@@H](O)[C@H]2O)c1 [cNAD, carba-NAD] |  |  | about 60% | 75% | about 70% | 70 | alcohol dehydrogenase band in SDS gel ([5]; storage at 35° C., NAD 5 days, cNAD 6 days): distinctly less decomposition of the enzyme; alcohol dehydrogenase band in SDS gel ([5]; storage for 65 hours at 35° C. (versus 6° C.)): differ only slightly; residual content of coenzyme in glucose detection reagent [6]: about 80 % of the initial level; enzyme band in SDS gel ([7]; storage at 50° C., after 476 hours): only slight change; enzyme band in SDS gel ([7]; storage for 5 weeks at 32° C. and 85% relative humidity): still identifiable as a band with the expected mobility; current required to reoxidize the reduced mediator versus glucose concentration [8]: linearly dependent on the glucose concentration; function plot of GlucDH after storage ([9]; after 5 weeks at 32° C., 85% humidity): still in the bunch of previous measurements; kinetics plots of GlucDH after storage ([9]; after 5 weeks at 32° C., 85% relative humidity): remain virtually unchanged; function plot of GlucDH after storage ([9]; over 24 weeks at 32° C., 85% humidity): only slightly changed at high glucose concentrations; dry blank value (before application of blood sample) ([9]; up to 5 weeks at 32° C., 85% humidity): this does not occur; residual activity of GlucDH_E170K_K252L mutant [10]: about 50%; residual activity of GlucDH_E96G_E170K mutant [11]: about 70%; residual activity of GlucDH enzyme ([4]; after 24 weeks at 32° C. and 85% relative humidity): about 25%
